Measured values reported in paper PMC11676834, “Composition of Triterpene Glycosides of the Far Eastern Sea Cucumber Cucumaria conicospermium Levin et Stepanov; Structure Elucidation of Five Minor Conicospermiumosides A3-1, A3-2, A3-3, A7-1, and A7-2; Cytotoxicity of the Glycosides Against Human Breast Cancer Cell Lines; Structure–Activity …” (Marine Drugs, 2024).
Where a name gives a salt, the structure may show the parent alone. Read-outs that look alike come from different tables or passages of the source.

Assays:
human erythrocytes = assay: Hemolytic activity; assay type: cell-based; conditions: Erythrocyte, 1 h at 37 °C, read-out: ED50, Erythrocytes (hemolytic activity)
Method: Human blood (B(III) Rh+) was used to obtain erythrocytes by centrifuging 450× g three times for 5 min with phosphate-buffered saline (PBS) (pH 7.4) at 4 °C on centrifuge LABOFUGE 400R (Heraeus, Hanau, Germany). Ice-cold PBS (pH 7.4) was used for resuspension of erythrocytes residue to a final optical density of 1.5 at 700 nm, which was kept on ice. Then, 10 µL of tested compound solution or control (okhotoside A1-1 (7)) were added to 90 µL of erythrocyte suspension in V-bottom 96-well plates and exposed for 1 h at 37 °C. Next, centrifugation at 900× g for 10 min on a laboratory centrifuge LMC-3000 (Biosan, Riga, Latvia), led to separation of layers, and 80 µL of supernatant was carefully decanted and transferred into new flat-plate for each. The values of erythrocyte lysis were measured on microplate photometer Multiskan FC (Thermo Fisher Scientific, Waltham, MA, USA) at λ = 570 nm as hemoglobin concentration in supernatant. The effective dose, causing lysis of 50% erythrocytes (ED50), was calculated with SigmaPlot 14.0 software. All the experiments were carried out in triple repetitions, p ≤ 0.05.

in vitro = assay type: cell-based, human; conditions: human, MTT, 24 h; read-out: Cytotoxicity, IC50, MCF-10A
Text: (§1) Human erythrocytes were purchased from the Station of Blood Transfusion, Vladivostok. Human mammary epithelial cell line MCF-10A CRL-10317, human breast cancer cell lines T-47D HTB-133, MCF-7 HTB-22, and MDA-MB-231 CRM-HTB-26 were received from ATCC (Manassas, VA, USA). Culturing conditions: medium of RPMI-1640 with 1% penicillin/streptomycin (Biolot, St. Petersburg, Russia) and 10% fetal bovine serum (FBS) (Biolot, St. Petersburg, Russia) for the T-47D cell line; Minimum Essential Medium (MEM) with 1% penicillin/streptomycin sulfate (Biolot, St. Petersburg, Russia) and FBS (Biolot, St. Petersburg, Russia) to a final concentration of 10% for MCF-7 and MDA-MB-231 cells; DMEM/F12 medium with 10% FBS, 20 ng/mL EGF, […] hydrocortisone, 100 ng/mL cholera toxin, 10 μg/mL insulin, and 1% penicillin/streptomycin (BioinnLabs, Rostov-on-Don, Russia) for MCF-10A cell line.
(§2) The concentrations of tested glycosides were 0.1–50 µM; positive controls were cisplatin and okhotoside A1-1 (7). […] Then, the solutions of tested compounds with medium were replaced by 100 µL of fresh medium, and 10 µL of 3-(4,5-dimethylthiazol-2-yl)-2,5-diphenyltetrazolium bromide (MTT) (PanReac, AppliChem, Darmstadt, Germany) stock solution (5 mg/mL) was added to each well and incubated for 4 h, followed by the addition of 100 µL of SDS-HCl solution (1 g SDS/10 mL d-H2O/17 µL 6 N HCl) and further incubated for 18 h. Multiskan FC microplate photometer (Thermo Fisher Scientific, Waltham, MA, USA) was used to measure the absorbance of the converted dye formazan at 570 nm. The concentration caused the 50% cell metabolic activity inhibition (IC50) expresses the cytotoxic activity of each glycoside. The experiments were conducted in triplicate, p ≤ 0.05.

MCF-7 cells = assay: cells; assay type: cell-based, human; conditions: MTT, 24 h, read-out: Cytotoxicity, IC50, MCF-7
Text: as §1
(§3) The concentrations of tested glycosides were 0.1–50 µM; positive controls were cisplatin and okhotoside A1-1 (7). Methodology: to each well of 96-well plates, the cell suspension (180 µL) with solution (20 µL) of tested glycoside in a certain concentration was placed (MCF-10A, MCF-7, T-47D, and MDA-MB-231—7 × 10^3 cells per well) and incubated in the atmosphere with 5% CO2 at 37 °C for 24 h. Then, the solutions of tested compounds with medium were replaced by 100 µL of fresh medium, and 10 µL of 3-(4,5-dimethylthiazol-2-yl)-2,5-diphenyltetrazolium bromide (MTT) (PanReac, AppliChem, Darmstadt, Germany) stock solution (5 mg/mL) was added to each well and incubated for 4 h, followed by the addition of 100 µL of SDS-HCl solution (1 g SDS/10 mL d-H2O/17 µL 6 N HCl) and further incubated for 18 h. Multiskan FC microplate photometer (Thermo Fisher Scientific, Waltham, MA, USA) was used to measure the absorbance of the converted dye formazan at 570 nm. The concentration caused the 50% cell metabolic activity inhibition (IC50) expresses the cytotoxic activity of each glycoside. The experiments were conducted in triplicate, p ≤ 0.05.

T-47D cells = assay: cells; assay type: cell-based, human; conditions: MTT, 24 h, read-out: Cytotoxicity, IC50, T-47D
Text: as §1, §3

MDA-MB-231 cells = assay: cells; assay type: cell-based, human; conditions: MTT, 24 h, read-out: Cytotoxicity, IC50, MDA-MB-231
Text: as §1, §2

MCF-10A cells = assay: in vitro; assay type: cell-based, human; conditions: MTT, 24 h; read-out: Cytotoxicity, IC50, MCF-10A
Text: as §1, §2

Structure (SMILES) | HC50 (human erythrocytes) [nM] | IC50 (in vitro) [µM] | IC50 (MCF-7 cells; Homo sapiens, MCF7) [µM] | IC50 (T-47D cells; Homo sapiens, T47D) [µM] | IC50 (MDA-MB-231 cells; Homo sapiens, MDA-MB-231) [µM] | IC50 (MCF-10A cells) [µM] | IC50 (MCF-7 cells) [µM] | IC50 (T-47D cells) [µM] | IC50 (MDA-MB-231 cells) [µM]
CO[C@@H]1[C@@H](O)[C@H](O[C@@H]2[C@@H](O)[C@H](O[C@H]3[C@H](O)[C@@H](O[C@@H]4OC[C@@H](O)[C@H](O)[C@H]4O)[C@H](O[C@H]4[C@H](O[C@H]5CC[C@]6(C)C7CC[C@]8(C)[C@@H]([C@@](C)(O)[C@@H](CC=C(C)C)OC(C)=O)CC[C@@]8(C)C7=CC[C@H]6C5(C)C)OC[C@@H](OS(=O)(=O)O)[C@@H]4O)O[C@@H]3C)O[C@H](COS(=O)(=O)O)[C@H]2O)O[C@H](CO)[C@H]1O (stereo partly drawn) [Conicospermiumoside A3-2 (2), 3β-O-{3-O-methyl-β-D-glucopyranosyl-(1→3)-6-O-sodium sulfate-β-D-glucopyranosyl-(1→4)-[(1→2)-β-D-xylopyranosyl]-β-D-quinovopyranosyl-(1→2)-4-O-sodium sulfate-β-D-xylopyranosyl}-20R-hydroxy,22R-acetoxylanosta-7,24-diene] | 7560 ± 80 | 36.8 ± 2.48 | > 50 | 38.9 ± 1.62 | 20.7 ± 2.28 |  |  |  | 
CO[C@@H]1[C@@H](O)[C@H](O[C@@H]2[C@@H](O)[C@H](O[C@H]3[C@H](O)[C@@H](O[C@@H]4OC[C@@H](O)[C@H](O)[C@H]4O)[C@H](O[C@H]4[C@H](O[C@H]5CC[C@]6(C)C7CC[C@]8(C)[C@@H]([C@@](C)(O)[C@H](O)/C=C/C(C)(C)O)CC[C@@]8(C)C7=CC[C@H]6C5(C)C)OC[C@@H](OS(=O)(=O)O)[C@@H]4O)O[C@@H]3C)O[C@H](COS(=O)(=O)O)[C@H]2O)O[C@H](COS(=O)(=O)O)[C@H]1O (stereo partly drawn) [Conicospermiumoside A7-2 (5), 3β-O-{6-O-sodium sulfate-3-O-methyl-β-D-glucopyranosyl-(1→3)-6-O-sodium sulfate-β-D-glucopyranosyl-(1→4)-[(1→2)-β-D-xylopyranosyl]-β-D-quinovopyranosyl-(1→2)-4-O-sodium sulfate-β-D-xylopyranosyl}-(20R,22R,25)-trihydroxylanosta-7,23-diene] | 20400 ± 360 | > 50 | > 50 | > 50 | 49.9 ± 1.45 |  |  |  | 
CO[C@@H]1[C@@H](O)[C@H](O[C@@H]2[C@@H](O)[C@H](O[C@H]3[C@H](O)[C@@H](O[C@@H]4OC[C@@H](O)[C@H](O)[C@H]4O)[C@H](O[C@H]4[C@H](O[C@H]5CC[C@]6(C)C7CC[C@]8(C)[C@@H]([C@@](C)(O)[C@H](O)CC=C(C)C)CC[C@@]8(C)C7=CC[C@H]6C5(C)C)OC[C@@H](OS(=O)(=O)O)[C@@H]4O)O[C@@H]3C)O[C@H](COS(=O)(=O)O)[C@H]2O)O[C@H](COS(=O)(=O)O)[C@H]1O (stereo partly shown) [Frondoside A7-4 (14), frondoside A7-4] | 2160 ± 60 | 26.8 ± 0.94 | 32.9 ± 2.13 | 44.5 ± 2.18 | 8.11 ± 0.74 |  |  |  | 
CO[C@@H]1[C@@H](O)[C@H](O[C@@H]2[C@@H](O)[C@H](O[C@H]3[C@H](O)[C@@H](O[C@@H]4OC[C@@H](O)[C@H](O)[C@H]4O)[C@H](O[C@H]4[C@H](OC5CC[C@]6(C)[C@H]7CCC89C(=O)O[C@@](C)(CCCC(C)C)C8[C@@H](OC(C)=O)C[C@@]9(C)C7=CC[C@H]6C5(C)C)OC[C@@H](OS(=O)(=O)O)[C@@H]4O)O[C@@H]3C)OC[C@H]2O)O[C@H](CO)[C@H]1O (stereo partly shown) [Frondoside A (10), frondoside A] | 1220 ± 60 | 11 ± 1.04 | 19.4 ± 0.48 | 9.76 ± 0.53 | 2.79 ± 0.09 |  |  |  | 
COC1C(O)C(CO)OC(OC2C(O)COC(OC3C(C)OC(OC4C(OC5CCC6(C)C7CCC89C(=O)OC(C)(CC(=O)CC(C)C)C8C(OC(C)=O)CC9(C)C7=CCC6C5(C)C)OCC(OS(=O)(=O)O)C4O)C(O)C3O)C2O)C1O (stereo not shown) [Okhotoside A1-1 (7), okhotoside A1-1] | 420 ± 20 | 7.95 ± 0.44 | 10.9 ± 0.96 | 6.23 ± 0.68 | 2.25 ± 0.17 |  |  |  | 
C=C(C)CCC[C@]1(C)OC(=O)C23CC[C@H]4C(=CC[C@H]5C(C)(C)C(O[C@@H]6OC[C@@H](OS(=O)(=O)O)[C@H](O)[C@H]6O[C@@H]6O[C@H](CO)[C@@H](O[C@@H]7O[C@H](COS(=O)(=O)O)[C@@H](O)[C@H](O[C@@H]8O[C@H](CO)[C@@H](O)[C@H](OC)[C@H]8O)[C@H]7O)[C@H](O)[C@H]6O[C@@H]6OC[C@@H](O)[C@H](O)[C@H]6O)CC[C@]45C)[C@]2(C)C[C@H](OC(C)=O)C31 (stereo partly shown) [Okhotoside B2 (9), okhotoside B2] | 1360 ± 100 | 10.7 ± 0.21 | 39.8 ± 2.96 | 11.1 ± 1.15 | 4.25 ± 0.38 |  |  |  | 
N.N.[Cl][Pt][Cl] [cisplatin, reference compound] |  |  |  |  |  | 74.3 ± 2.19 | 113 ± 2.45 | > 160 | ≥ 160
